Reference: patent US20220289816A1, “IMMUNOTHERAPY WITH B*07 RESTRICTED PEPTIDES AND COMBINATION OF PEPTIDES AGAINST CANCERS AND RELATED METHODS” (Immatics Biotechnologies GmbH, priority 2018, published 2022)

Columns and labels:
CD8+ T cells = assay: In vitro immunogenicity: in vitro T-cell priming assay with aAPCs loaded with peptide/MHC complexes and anti-CD28 antibody, pMHC multimer readout; format: cell-based, human; settings: Table 10b, pMHC multimer readout after priming of CD8+ T cells
Text: In order to obtain information regarding the immunogenicity of the TUMAPs of the present invention, the inventors performed investigations using an in vitro T-cell priming assay based on repeated stimulations of CD8+ T cells with artificial antigen presenting cells (aAPCs) loaded with peptide/MHC complexes and anti-CD28 antibody.
In order to perform in vitro stimulations by artificial antigen presenting cells loaded with peptide-MHC complex (pMHC) and anti-CD28 antibody, the inventors first isolated CD8+ T cells from fresh HLA-B*07 leukapheresis products via positive selection using CD8 microbeads (Miltenyi Biotec, Bergisch-Gladbach, Germany) of healthy donors obtained from the University clinics Mannheim, Germany, after informed consent.
PBMCs and isolated CD8+ lymphocytes were incubated in T-cell medium (TCM) until use consisting of RPMI-Glutamax (Invitrogen, Karlsruhe, Germany) supplemented with 10% heat inactivated human AB serum (PAN-Biotech, Aidenbach, Germany), 100 U/ml Penicillin/100 μg/ml Streptomycin (Cambrex, Cologne, Germany), 1 mM sodium pyruvate (CC Pro, Oberdorla, Germany), 20 μg/ml Gentamycin (Cambrex). 2.5 ng/ml IL-7 (PromoCell, Heidelberg, Germany) and 10 U/ml IL-2 (Novartis Pharma, Nürnberg, Germany) were also added to the TCM at this step.
Generation of pMHC/anti-CD28 coated beads, T-cell stimulations and readout was performed in a highly defined in vitro system using four different pMHC molecules per stimulation condition and 8 different pMHC molecules per readout condition.
The purified co-stimulatory mouse IgG2a anti human CD28 Ab 9.3 (Jung et al., 1987) was chemically biotinylated using Sulfo-N-hydroxysuccinimidobiotin as recommended by the manufacturer (Perbio, Bonn, Germany). Beads used were 5.6 μm diameter streptavidin coated polystyrene particles (Bangs Laboratories, Illinois, USA).
800.000 beads/200 μl were coated in 96-well plates in the presence of 4×12.5 ng different biotin-pMHC, washed and 600 ng biotin anti-CD28 were added subsequently in a volume of 200 μl. Stimulations were initiated in 96-well plates by co-incubating 1×10^6 CD8+ T cells with 2×10^5 washed coated beads in 200 μl TCM supplemented with 5 ng/ml IL-12 (PromoCell) for 3 days at 37° C. Half of the medium was then exchanged by fresh TCM supplemented with 80 U/ml IL-2 and incubating was continued for four days at 37° C. This stimulation cycle was performed for a total of three times. For the pMHC multimer readout using 8 different pMHC molecules per condition, a two-dimensional combinatorial coding approach was used as previously described (Andersen et al., 2012) with minor modifications encompassing coupling to five different fluorochromes. Finally, multimeric analyses were performed by staining the cells with Live/dead near IR dye (Invitrogen, Karlsruhe, Germany), CD8-FITC antibody clone SK1 (BD, Heidelberg, Germany) and fluorescent pMHC multimers. For analysis, a BD LSRII SORP cytometer equipped with appropriate lasers and filters was used. Peptide specific cells were calculated as percentage of total CD8+ cells. Evaluation of multimeric analysis was done using the FlowJo software (Tree Star, Oregon, USA). In vitro priming of specific multimer+CD8+ lymphocytes was detected by comparing to negative control stimulations.

HLA-B*07 = HLA-B*07 (Homo sapiens, UniProt P01889); assay: MHC binding assay (UV-ligand exchange, ELISA of stabilized MHC complexes); settings: peptide exchange yield on HLA-B*07, UV-ligand exchange
In short: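 Peptide–MHC complexes were made by UV-ligand exchange, in which a UV-cleavable peptide is replaced by the test peptide. Exchange yield was measured by ELISA of stabilized complexes on streptavidin-coated plates, using HRP anti-β2m detection (1 h, 37 °C), TMB substrate and absorbance at 450 nm.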

Peptide exchange (HLA-B*07)	Substance	Wells positive [%] (CD8+ T cells)
++++ (>75% = ++++)	59 (KPRTIYSSL; listed as Homo sapiens) [compound 59]	+ (<20% = +)
++++ (>75% = ++++)	51 (SPVFYVQTL; listed as Homo sapiens) [compound 51]	+ (<20% = +)

Second part, the substance before the results:

Substance	Peptide exchange (HLA-B*07)	Wells positive [%] (CD8+ T cells)
17 (SPAAPLSPASSL; listed as Homo sapiens) [compound 17]	++++ (>75% = ++++)	+ (<20% = +)
38 (RPSFPNLTSF; listed as Homo sapiens) [compound 38]	++++ (>75% = ++++)	+ (<20% = +)
6 (LPLNSSTSL; listed as Homo sapiens) [compound 6]	++++ (>75% = ++++)	+ (<20% = +)
